Test results as given in patent US20250324966A1, “ADDITIVE FOR PRESERVING CELLS, TISSUE AND/OR FOOD” (Proteimax Bio Technology Israel LTD, priority 2021, published 2025).

How the values were obtained:
[1] = test system: fresh strawberries; test: Preservation of strawberries against fungal contamination, single topical application; settings: 100 μM peptide in water
Protocol: (§1) The peptide of SEQ ID NO: 3, which comprises pep5 (SEQ ID NO: 1) and the cell-penetrating peptide (SEQ ID NO: 2), was prepared in a 100 μM solution in water, for direct topical use on the food to be preserved.
The peptide of SEQ ID NO: 15, which comprises the peptide of SEQ ID NO: 9 and the cell penetrating peptide of SEQ ID NO: 2, was prepared in a 100 μM solution in water, for use in the food or plant to be preserved.
The additive prepared according to example 1 was used in experiments for food preservation by single topical application.
The results of groups of 10 strawberries in each condition (test and control) at 0, 12, 24, 36, 48 and 60 h, respectively in A, B, C, D, E and F are shown.

[2] = test system: fresh strawberries; test: Preservation of strawberries against rot at 4° C.; settings: 100 μM peptide in water, kept at 4° C., 5 days; intense rot visible in untreated group; FIG. 3 D
Protocol: as §1
A new experiment with strawberries, now with the test and control groups being kept at a temperature of 4° C.
Representative results of strawberries in each condition (test and control) at 0 h, 24 h, 48 h and 5 days, respectively in A, B, C and D are shown.

[3] = test system: bean seeds; test: Modulation of the germination rate of bean seeds; design: species or system black bean; settings: single dose 100 μM in water, moist cotton, vs water
Protocol: To evaluate the effects of the additive of the invention in the modulation of cell division or multiplication in plants, particularly in the modulation of seed germination and/or plant development, an experiment aimed at observing the germination of bean seeds and the subsequent development of seedlings was conducted. Groups of groups of 14 black bean seeds were placed in moist cotton, each group in one condition: control, with application of water; and test, with application of the additive of the invention as described below. The state of the seeds was observed and documented at times 0, 3 and 4, and the pattern and profile of germination of the beans were analyzed.
The results of germination of groups of 14 seeds in moist cotton in each condition (control and test) in 0, 3 and 4 days, respectively in A, B and C are shown.

[4] = test system: roses; test: Preservation of post-harvest flowers (roses), stems submerged in additive; design: species or system Rosa; settings: single dose 100 μM in water, room temperature (28° C.), 0, 3 and 6 days, vs H2O, FIG. 6
Protocol: (§2) In this context, as an experimental model to evaluate the preservation of flowers or inflorescences, two different types of flowers and their degradation/preservation profile were evaluated through incubation with water or with a solution of the preservation additive of the invention, keeping the flowers in room temperature for a few days.
(§3) The chosen flowers were the rose (Rose-red) and the Gerbera (Gerbera). Species of the genus Rosa are among the most ornamental flowers cultivated in the world. Species of the genus Gerbera are used as an experimental organism in studies of flowering and flower meristematic development, and because they contain natural coumarin derivatives, they are flowers of phytochemical interest and biological control.
(§4) In this embodiment, the peptide of SEQ ID NO: 15, which comprises the peptide of SEQ ID NO: 9 and the peptide of SEQ ID NO: 2, was used.
(§5) Four flowers were used in each container, the stems being kept submerged with at least 5 cm of the respective liquid during the test period. Aluminum foil was used around the container where the stems were submerged, to protect from the incidence of light. Photographic results of flowers kept in each condition (control and test) at 0, 3 and 6 days are shown. […]

[5] = test system: Gerberas; test: Preservation of post-harvest flowers (Gerberas), stems submerged in additive; design: species or system Gerbera; settings: single dose 100 μM in water, room temperature (28° C.), 0, 3 and 6 days, vs H2O, FIG. 6
Protocol: as §2, §3, §4, §5

## SEQ ID NO: 3: peptide containing the peptide of SEQ ID NO: 1 (WELVVLGKL) and the cell-penetrating peptide of SEQ ID NO: 2 (YGRKKRRQRRR) in the C-terminal region (WELVVLGKLYGRKKRRQRRR)
[1]; single application, 0-60 h, vs water control, FIGS. 1 and 2
  fruit preservation (visual results, percentage of spoiled fruits): great potential for fruit preservation
[1]; single topical application, FIG. 1 D and E (36 and 48 h), visible in water control
  presence of a fungus with white hyphae on strawberries: not detectable
[2]
  presence of intense rot in strawberries: not detectable
[3]; room temperature (28° C.), 0, 3 and 4 days, FIGS. 4 and 5
  seed germination process (number of bean seeds germinated): delay in the seed germination process
[3]; room temperature (28° C.)
  metabolic state of the shoots or seedlings: substantial modulation

## SEQ ID NO: 15: peptide containing the peptide of SEQ ID NO: 9 and the cell-penetrating peptide of SEQ ID NO: 2 (WELVVLYGRKKRRQRRR)
[4]
  preservation of flowers (roses), visual: effective preservation
[5]
  preservation of flowers (Gerberas), visual: effective preservation
